Results published in patent publication US12365651B2, “Use of pirfenidone and derivatives for modulation of B lymphocyte activity and organ protection from acute tissue damage” (Washington University, priority 2017, dated 2025).

System: wild-type (WT) mice (C57BL/6J)
Experiment: Closed-chest ischemia (90 minutes) reperfusion (I/R) injury
Type: in vivo, mouse
Protocol: Ischemia Reperfusion (I/R) Injury. Hearts from wild-type (WT) mice (C57BL/6J; purchased from Jackson Laboratory) were subjected to ischemia reperfusion (I/R) injury, using the closed-chest ischemia reperfusion model developed by Entman and colleagues (34), and modified as we have described previously (15). For the studies described herein we used 9-10 week old mice that were instrumented, then at 1 week post instrumentation were anesthetized with 1.5% isoflurane, and subjected to 90 minutes of closed-chest ischemia, followed by reperfusion for 2 weeks.
In order to administer Pirfenidone, mice were fed powdered chow mixed with Pirfenidone (eNovation Chemicals, Bridgewater, NJ, USA, Cat #D404655) at 0.5% in weight or powdered chow alone. […] Unless specifically noted, mice were switched to a diet enriched with Pirfenidone 3 days prior to DT-induced injury or I/R-injury, and maintained on this diet throughout the duration of the experiments. In parallel studies, we fed mice normal chow prior to I/R injury and then administered Pirfenidone acutely at the time of cardiac injury. For these latter studies, mice were injected i.p. with diluent (200 μL phosphate-buffered solution [PBS]) or i.p. with Pirfenidone (200 μL of Pirfenidone [5 mg/mL] in PBS) after reperfusion and the morning after I/R injury (2 injections total). They were switched to Pirfenidone-enriched diet or control diet the evening of I/R injury and maintained on the same diet until completion of the experiment.
Rosa26-DT Mlc2v-Cre and littermate control WT mice were euthanized 14 days after DT injection, and the hearts were removed and weighed to determine the heart-weight-to-tibia-length-ratio. WT mice were euthanized 14 days after I/R injury and the hearts were removed and weighed to determine the heart-weight-to-tibia-length-ratio. Hearts were processed, paraffin-embedded, and stained with hematoxylin/eosin and Masson's trichrome, as described (38). TUNEL staining was performed with the Millipore (Burlington, MA, USA) S7200 ApopTag Peroxidase In Situ Oligo Ligation Apoptosis Detection Kit according to the manufacturer's instruction.
Image acquisition. Ultrasound examination of the cardiovascular system was performed using a Vevo 2100 Ultrasound System (VisualSonics Inc, Toronto, Ontario, Canada) equipped with a 30 MHz linear-array transducer, as previously described (15).
Imaging Protocol. Mice were imaged by echocardiography at the time of ischemia and 2 weeks after reperfusion to evaluate LV structure and function, as described (39). The echocardiographer was blinded to study group assignment. Animals with poor acoustic windows or small areas at risk (<0.45) at the time of ischemia were excluded from further analysis.
For flow cytometry experiments, mice were euthanized in a CO2 chamber and the hearts were perfused with cold PBS, carefully dissected from extracardiac tissue under a stereo microscope, finely minced, suspended in 3 ml of DMEM, and then digested with 120 U of DNAse (Sigma), 180 U of hyaluronidase (Sigma) and 1350 U of Collagenase (Sigma) for 60 minutes at 37Co. The digested material was filtered through 40 μm filters and pelleted by centrifugation (250×g for 3 minutes at 4° C.) in HBSS supplemented with 2% FCS+0.2% bovine serum albumin (BSA). Red blood cells were lysed in ACK lysis buffer (Invitrogen) for 15′ on ice and the remaining cells were resuspended in 300 μL of FACS buffer (PBS with 2% FCS and 2 mM EDTA). Cultured cells were collected for FACS analysis as described above and resuspended in 300 μL of FACS buffer. Samples were labeled with the fluorescently conjugated antibodies outlined in the table below. Cells were stained for 45 minutes on ice, and washed in FACS buffer prior to analysis. All antibodies from Biolegend were used at 0.2 μL per 300 μL sample, while antibodies from BD biosciences were used at 0.4 μL per 300 μL sample. FACS was performed on Beckton Dickinson analyzers (LSRII, Canto, X20 or Fortessa). […]

[1] = Pirfenidone chow from 3 days prior to I/R, 2 weeks post I/R, vs control
[2] = day 4 post I/R, Pirfenidone vs control

Cc1ccc(=O)n(-c2ccccc2)c1 [Pirfenidone, 5 methyl-1-phenyl-2-[H] pyridone]
LVEF (B-cell depleted (anti-CD20) + Pirfenidone vs B-cell depleted mice, 2 weeks after I/R, p=0.15): no significant difference
LV mass (B-cell depleted (anti-CD20) + Pirfenidone vs B-cell depleted mice, 2 weeks after I/R, p=0.21): no significant difference
LV end-diastolic volume (B-cell depleted (anti-CD20) + Pirfenidone vs B-cell depleted mice, 2 weeks after I/R, p=0.40): no significant difference
percentage of trichrome positive myocardium (B-cell depleted (anti-CD20) + Pirfenidone vs B-cell depleted mice, 2 weeks after I/R, p=0.43): no significant difference
heart-weight-to-tibia length ratio (B-cell depleted (anti-CD20) + Pirfenidone vs B-cell depleted mice, 2 weeks after I/R, p=0.75): no significant difference
area at risk (segmental wall motion score index, SWMSI) (Pirfenidone chow from 3 days prior to I/R vs control, p=0.68): no difference
LV end-diastolic volumes [1]: significant (p=0.02) decrease
LVEF [1]: trend (p=0.08) towards improvement
heart-weight-to-tibia length ratio [1]: significant decrease
LV mass measured by 2-D echocardiography (Pirfenidone chow from 3 days prior to I/R, 2 weeks post I/R, vs control, p=0.03): significant decrease
percentage of myocardium exhibiting collagen staining with Masson's trichrome (Pirfenidone chow from 3 days prior to I/R, at 2 weeks, vs normal chow, p=0.4): no significant difference
heart-weight/tibia length ratio (acute administration of Pirfenidone after reperfusion then chow 14 days, vs diluent, p=0.015): significantly (p=0.015) reduced
area at risk (acute administration of Pirfenidone after reperfusion, vs diluent, p=0.47): not different
CD19+ lymphocytes [2]: significant (p<0.001) reduction
subset of CD19+CD11b− B lymphocytes [2]: significant (p<0.001) reduction
number of myocardial CD19+ CD86high (following I/R injury, day 4): significant (p<0.03) decrease
